Patent US9999616B2 (ZENITH EPIGENETICS LTD., priority 2013, dated 2018)
pIC50: −log10 of the molar value.

Legend:
[1] = system: c-myc in Human AML MV4-11 cells; experiment: Inhibition of cMYC expression (mRNA, real-time PCR) in MV4-11 cells; type: cell-based; settings: 3 h treatment, cMYC mRNA by real-time PCR
Summary of the method: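 MV4-11 cells in IMDM with 10% FBS were treated with increasing compound concentrations (DMSO 0.1%) for 3 h at 37 °C, in triplicate. Isolated mRNA was quantified by one-step TaqMan RT-qPCR, cMYC Ct normalized to cyclophilin, and fold expression given relative to DMSO control.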

[2] = system: Human AML MV-4-11 cells; experiment: Inhibition of cell proliferation in MV4-11 cells (CellTiter Aqueous One); type: cell-based; settings: MV4-11, 72 h
Summary of the method: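 MV4-11 cells, 5×10^4 per well in IMDM with 10% FBS, were exposed to increasing compound concentrations or 0.1% DMSO for 72 h at 37 °C in triplicate. Viability was read by MTS (CellTiter Aqueous One) absorbance at 490 nm after 3-4 h. IC50 was derived from background-corrected signal relative to DMSO.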

[3] = system: hIL-17 mRNA; experiment: Inhibition of hIL-17 mRNA transcription in OKT3-stimulated peripheral blood mononuclear cells; type: cell-based; settings: human PBMC, OKT3 stimulation 6 h, read-out: IL-17 Activity
Summary of the method: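 Human PBMCs in IL-2 (20 ng/ml) medium preincubated 1 h with compound or 0.1% DMSO, then OKT3-stimulated for 6 h at 37 °C. hIL-17 mRNA quantified by one-step TaqMan qRT-PCR, normalized to an internal control, as fold induction relative to control.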

[4] = In vivo efficacy in experimental autoimmune encephalomyelitis (EAE) model of MS; set-up: species or system mouse; settings: female C57Bl/6 mice, 50 to 125 mg/kg b.i.d.
Source text: Experimental autoimmune encephalomyelitis (EAE) is a T-cell-mediated autoimmune disease of the CNS which shares many clinical and histopathological features with human multiple sclerosis (MS). EAE is the most commonly used animal model of MS. […] Cytokines IL-23, IL-6 and IL-17, which are either critical for Th1 and Th17 differentiation or produced by these T cells, play a critical and non-redundant role in EAE development. Therefore, drugs targeting production of these cytokines are likely to have therapeutic potential in treatment of MS.
Compounds of Formula I were administered at 50 to 125 mg/kg b.i.d. from time of immunization to EAE mice to assess anti-inflammatory activity. In this model, EAE is induced by MOG35-55/CFA immunization and pertussis toxin injection in female C57Bl/6 mice.

[5] = system: TH1, Th2 and Th17 cytokines; experiment: Ex vivo effects on T cell function from splenocyte and lymphocyte cultures stimulated with external MOG; type: in vivo, mouse; settings: MOG stimulation 72 hours, mice treated 11 days b.i.d
Protocol: Mice were immunized with MOG/CFA and simultaneously treated with the compound for 11 days on a b.i.d regimen. Inguinal Lymph node and spleen were harvested, cultures were set up for lymphocytes and splenocytes and stimulated with external antigen (MOG) for 72 hours. Supernatants from these cultures were analyzed for TH1, Th2 and Th17 cytokines using a Cytometric Bead Array assay.

[6] = system: MM1.s cells; experiment: In vivo efficacy in multiple myeloma xenograft model using MM1.s cells; set-up: species or system mouse; settings: mice, oral 25 to 90 mg/kg
Protocol: MM1.s cells (ATCC) were grown under standard cell culture conditions and SCID-Beige strain of female mice age 6-7 weeks were injected with 10×10^6 cells/animal in 100 μL PBS+100 μL Matrigel in the lower left abdominal flank. By approximately day 21 after MM1.s cells injection, mice were randomized based on tumor volume (L×W×H)/2) of average 120 mm^3. Mice were dosed orally with compound at 25 to 90 mg/kg b.i.d and or q.d in EA006 formulation at 10 mL/kg body weight dose volume. Tumor measurements were taken with electronic micro calipers and body weights measured on alternate days beginning from dosing period. The average tumor volumes, percent Tumor Growth Inhibition (TGI) and % change in body weights were compared relative to Vehicle control animals. The means, statistical analysis and the comparison between groups were calculated using Student's t-test in Excel.

[7] = In vivo efficacy in rat collagen-induced arthritis; settings: female Lewis rats, dosed Day 11 to Day 17
Protocol: Rat collagen-induced arthritis is an experimental model of polyarthritis that has been widely used for preclinical testing of numerous anti-arthritic agents. Following administration of collagen, this model establishes a measurable polyarticular inflammation, marked cartilage destruction in association with pannus formation and mild to moderate bone resorption and periosteal bone proliferation. In this model, collagen was administered to female Lewis strain of rats on Day 1 and 7 of study and dosed with compounds from Day 11 to Day 17. Test compounds were administered at 25 mg/kg to 120 mg/kg b.i.d and 7.5 mg/kg to 30 mg/kg q.d dose to assess the potential to inhibit the inflammation (including paw swelling), cartilage destruction and bone resorption in arthritic rats, using a model in which the treatment is administered after the disease has been established.

Row | SMILES | pIC50 [1] | pIC50 [2] | pIC50 [3] | In vivo activity [4] | In vivo activity [5] | In vivo activity [6] | In vivo activity [7]
1 | Cc1nc2c(-c3c(C)noc3C)cc(-c3c(C)noc3C)cc2[nH]1 [Example Compound 6, 4,4′-(2-methyl-1H-benzo[d]imidazole-4,6-diyl)bis(3,5-dimethylisoxazole)] | 5.52 to 6.52 | 5.52 to 6.52 | ≥ 6.52 | Active | Active | Active | –
2 | Cc1noc(C)c1-c1cc(-c2c(C)noc2C)c2nc[nH]c2c1 [Example Compound 1, 4,4′-(1H-benzo[d]imidazole-4,6-diyl)bis(3,5-dimethylisoxazole)] | 5.52 to 6.52 | 5.52 to 6.52 | 5.52 to 6.52 | Active | Active | Active | Active
3 | Cc1nc2c(-c3c(C)nn(C)c3C)cc(-c3c(C)noc3C)cc2[nH]1 [Example Compound 49, 3,5-dimethyl-4-(2-methyl-4-(1,3,5-trimethyl-1H-pyrazol-4-yl)-1H-benzo[d]imidazol-6-yl)isoxazole] | ≥ 6.52 | 5.52 to 6.52 | ≥ 6.52 | – | – | – | –
4 | Cc1nc2c(-c3cccnc3C)cc(-c3c(C)noc3C)cc2[nH]1 [Example Compound 41, 3,5-dimethyl-4-(2-methyl-4-(2-methylpyridin-3-yl)-1H-benzo[d]imidazol-6-yl)isoxazole] | 5.52 to 6.52 | 5.52 to 6.52 | 5.52 to 6.52 | – | – | Active | Active
